Experimental data reported in paper PMC9763333, “In vitro characterization of immune modulating drug-eluting immunobeads towards transarterial embolization in cancer” (Scientific Reports, 2022).
Where “and” joins values, the source holds several entries; their conditions need not be identical. Identical values can stand only once. Counter-ions that a name gives are not always drawn.

Tests used:
[1] = Drug loading into DC Bead LUMI; format: physicochemical; details: for Maximum drug loaded: n = 3, base form except Dox (salt form); for Theoretical maximum loading level based on SO3− contents: per mL DC Bead LUMI, assuming 1:1 drug to sulfonate
In short: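 Loading done in triplicate; amount loaded = initial drug in loading solution minus drug remaining and cumulative drug withdrawn for sampling. Maximum loading taken when loading-solution concentration stopped changing, before washing; relative % loading expressed on a molar basis against available SO3^- ions, mean ± SD.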

[2] = parameters: method as in PMID 17483878; details: cited from earlier work
[3] = Drug loading into LC Bead; format: physicochemical; details: per 1 mL LC Bead
Procedure: Drug loading was performed in triplicate as previously reported[45] with slight modifications. Briefly, 1.3 molar equivalent of each drug was mixed with one molar equivalent of sulfonate group of DC Bead LUMI or LC Bead. The drug-bead mixture was agitated with upright rocking motion at a set maximum rocking speed of 10 which corresponds to 70 rpm, for 144 h at ambient temperature (Ward's® Rotating Mixers, VWR, Bridgeport, NJ). At specified time points (5, 15, 30 and 45 min and then hourly for eight hours followed by 24, 48, 72 and 144 h) a 10 µL aliquot was withdrawn from the loading solution to quantify drug loading based on the change in concentration over time. […] The concentration of drug in each aliquot of loading solution at each time point was quantified by HPLC as described above using a linear standard curve obtained from solutions of known concentration of each drug (7.8–125 μg/mL) versus the detector response as area under the curve. The amount of drug loaded at the specified time points was calculated by subtracting the amount of drug remaining from the initial amount of drug in the loading solution and the cumulative amount of drug withdrawn for sampling. The maximum drug loaded in the beads was calculated once no further change in the concentration in the loading solution could be measured and before washing the beads. […]

[4] = Drug release from DC Bead LUMI in saline; format: physicochemical; details: for drug eluted from DC Bead LUMI: saline, single replicates
In short: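 Beads loaded with drug (62.5 µL of DC Bead LUMI) were placed in 50 mL of saline (0.9 mg/mL, pH 7.4) and rocked upright at 37 °C at speed setting 10 (70 rpm). At each sampling time, 1 mL of medium was taken for drug quantification and replaced with 1 mL of fresh saline pre-warmed to 37 °C. Cumulative release accounted for drug removed in earlier samples, and the 50 mL volume kept sink conditions.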

[5] = Drug solubilization by salt formation in acid; format: physicochemical; details: T in °C in parentheses in the cell (20.1 or 21.1)
In short: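 Drug base suspended in water and titrated with 0.1 N HCl until dissolved, at a final 2.5 mg/mL; solution lyophilized to the hydrochloride salt or used directly for DC Bead LUMI loading. GS-9620 and its decomposition product analyzed by C8 reversed-phase HPLC (UV 230 nm) and LC/MS.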

[6] = parameters: method as in PMID 28188808; details: 0.065 mmol Dox per milliliter of beads, constant agitation, depending on bead size; cited from earlier work

**Q.** Which results are given for `COc1cccc2c1C(=O)c1c(O)c3c(c(O)c1C2=O)C[C@@](O)(C(=O)CO)C[C@@H]3O[C@H]1C[C@H](N)[C@H](O)[C@H](C)O1` [Dox, doxorubicin hydrochloride]?
**A.** drug loaded above the predicted capacity of the bead ([1]; DC Bead LUMI): approximately 23%; loading behaviour ([1]; DC Bead LUMI): slower loading; equivalent of drug loaded to sulfonated bead ([1]; DC Bead LUMI, mean ± SD): 0.35 ± 0.01 mM drug/ml beads; Maximum drug loaded ([1]; DC Bead LUMI, mean ± SD): 204.54 ± 3.87 mg drug/ml beads and 205 ± 4 mg drug/ml beads; Maximum drug loaded ([1]; DC Bead LUMI, mean ± SD, listed as Doxorubicin HCl): 204.54 ± 3.87 mg drug/ml beads; Maximum drug loaded (Triplicate), % ([1]; DC Bead LUMI, single replicates): 121.32% and 125.547% and 121.757%; Drug: sulfonate ([1]; molar ratio at maximum loading, DC Bead LUMI): 1.228; Theoretical maximum loading level based on SO3− contents [1]: 166.50 mg; Theoretical maximum loading level based on SO3− contents ([1]; listed as Doxorubicin HCl): 166.5 mg; previously reported amount of Dox loaded into LC Bead [2]: 39.0 ± 3.8 mg/mL; average amount of Dox loaded into 1 mL of LC Bead [3]: 33.58 ± 3.08 mg; drug eluted from DC Bead LUMI ([4]; 5 min): 0.8697 µmol and 0.7574 µmol and 0.6743 µmol; drug eluted from DC Bead LUMI ([4]; 15 min): 0.9785 µmol and 0.9763 µmol and 0.879 µmol; drug eluted from DC Bead LUMI ([4]; 30 min): 1.239 µmol and 1.282 µmol and 1.112 µmol; drug eluted from DC Bead LUMI ([4]; 45 min): 1.546 µmol and 1.5359 µmol and 1.496 µmol; drug eluted from DC Bead LUMI ([4]; 60 min): 1.899 µmol and 1.906 µmol and 1.678 µmol; drug eluted from DC Bead LUMI ([4]; 120 min): 3.985 µmol and 3.46 µmol and 3.165 µmol; drug eluted from DC Bead LUMI ([4]; 180 min): 6.141 µmol and 6.4405 µmol and 5.733 µmol; drug eluted from DC Bead LUMI ([4]; 240 min): 7.976 µmol and 7.077 µmol and 7.054 µmol; drug eluted from DC Bead LUMI ([4]; 300 min): 9.987 µmol and 9.178 µmol and 9.242 µmol; drug eluted from DC Bead LUMI ([4]; 360 min): 12.6965 µmol and 11.2108 µmol and 10.9569 µmol; drug eluted from DC Bead LUMI ([4]; 420 min): 14.5125 µmol and 12.8898 µmol and 12.4195 µmol; drug eluted from DC Bead LUMI ([4]; 480 min): 16.4266 µmol and 14.4776 µmol and 14.2688 µmol; drug eluted from DC Bead LUMI ([4]; 1440 min): 47.172 µmol and 44.3546 µmol and 42.6335 µmol; drug eluted from DC Bead LUMI ([4]; 2880 min): 68.0842 µmol and 61.0855 µmol and 60.2496 µmol; drug eluted from DC Bead LUMI ([4]; 4320 min): 76.8802 µmol and 71.2335 µmol and 68.2708 µmol; drug eluted from DC Bead LUMI ([4]; 8640 min): 74.6523 µmol and 73.8043 µmol and 71.6405 µmol; release behaviour in saline ([4]; DC Bead LUMI): slow release; Dox released from DC Bead LUMI ([4]; Figure 11 legend, mean ± SD, n = 3): 74.4 ± 0.5 µmol Dox/ mL DC Bead LUMI; pH at which each drug dissolved for loading [5]: 4.2 (21.1); time to load drug to DC Bead LUMI [6]: 2 to 3 h
